Measurements taken from US20220143010A1, “CANCER TREATMENT COMPRISING NALTREXONE AND A CANNABINOID” (LDN Pharma Limited, priority 2019, published 2022).
“Also recorded” adds a separate entry of the source. Read-outs that look alike come from different tables or passages of the source.

How the values were obtained:
Assay type in all cases: cell-based
CB2 = assay: Western blot of CB2 levels in MCF7 cultures after two days of treatment; settings: for levels of the CB2 receptor after treatment: cancer cells (MCF7), summary statement
Method: Levels of Bcl2-associated death promoter (BAD), p21 protein, the opioid receptors kappa 1 (OPRK1) and mu 1 (OPRM1), and the cannabinoid receptors CBR1 (CB1) and CBR2 (CB2) are visualised by Western blot (left) against GAPDH as a loading control, and quantified via density analysis relative to GAPDH (right).
One illustrative and non-limiting experiment was carried out on cultures of MCF7 (breast cancer) cells. In brief, either LDN at 10 nM or 6BN at 1 μM or 10 μM was administered in vitro to a culture for two days, after which the expression levels of BAD, p21, opioid receptors kappa and mu, CB1, CB2, and GAPDH (as a loading control) were analysed via Western blot and subsequent quantification via density measurement of the bands.
In full, MCF7 cells were seeded into 6-well plates at a density of 1×10^5/well and left to adhere over-night. Naltrexone (10 nM) or 6-β-naltrexol (1 μM or 10 μM) were added to the cells before harvesting cells for western blot analysis. Primary probing was performed with specific antibodies generated against BAD, p21, OPRK1, […], CBR-1 and CBR-2. […] Anti-GAPDH was used as a loading control. All antibodies were used at a dilution of 1:1000, followed by the appropriate HRP conjugated secondary antibodies also at a dilution of 1:1000. Bands were visualised by the SuperSignal chemiluminescent detection system, and densitometry of band intensity was determined using Adobe Photoshop CS3, v10.0, and normalised to the loading control.

[1] = test system: MCF7 (breast cancer) cells; assay: Two-stage sequential treatment, cell number and viability (trypan blue); settings: LDN 10 nM or 6BN 10 μM for 48 h before cannabidiol 10 μM for 48 h, versus reversed sequence
Method: Each treatment lasted four days and consisted of two days of treatment with the first agent (UN=control, LDN=Low Dose Naltrexone at 10 nM CBD=Cannabidiol, 6BN=6-β-naltrexol) before the second-named agent was introduced for a further two days.
Another illustrative and non-limiting experiment was carried out on cultures of MCF7 (breast cancer) cells. In brief, the cultures were treated with LDN or 6BN for two days, after which a cannabinoid was administered for a further two days. Cell number and viability were assessed on day four. The sequence of the administration for each therapeutic agent was reversed and the experiment repeated.
In full, MCF7 cells were seeded into 6-well plates at a density of 1.5×10^4/well and left to adhere. Cells were then cultured with naltrexone (10 nM), 6-β-naltrexol (10 μM) or cannabidiol (10 μM). Drug-containing media was removed after 48 h, and cells were rinsed gently with drug-free medium. Fresh culture medium was then added to the cells supplemented with either naltrexone (10 nM), 6-β-naltrexol (10 μM) or cannabidiol (10 μM), as indicated in the graph. Cell number and viability were assessed a further 48 h later, with percentages of live and dead cells being discriminated by trypan blue dye exclusion. Data were then consolidated to compare the effect of sequence on overall effect.

A549 (lung cancer) cells = assay: Two-block schedule LDN+CBD and chemotherapeutic agent, cell number and viability at 96 h
Method: • A549 (lung cancer) and HCT116 (colon cancer) cells were cultured with drugs according to the schedules in Table 1. The schedules lasted a total of 96 h. • Treatments were separated into two blocks, each lasting 48 h. Due to the complications of cell testing using three different drugs in three different treatment phases, the CBD and LDN were administered together in one treatment phase and the chemotherapeutic agent in the other treatment phase. • There was a washout period between the two blocks, where exhausted media containing drugs were removed, cells then washed, before fresh media was added that contained the next block of treatment. • The chemotherapeutic agents were gemcitabine (GEM) or oxaliplatin (OXP), and used at an ˜IC20 concentration (1 uM). Low dose naltrexone (LDN) was used at 10 nM and cannabinoid (CBD) was used at 1 uM. “0” means nothing was administered and is used as a control. • Cell number and percentage cell viability were assessed at 96 h. Data were then consolidated to compare the effect of sequence on overall effect.

Row | Compound | rise of CB2 compared among the three treatments (CB2; MCF7 cells, 10 μM 6BN, two days) | levels of the CB2 receptor after treatment (CB2) | effect on inhibiting the proliferation of the cancer, by sequence [1] | IC20 (A549 (lung cancer) cells; Homo sapiens, A549, read-out: IC20 concentration) [nM] | IC20 (A549 (lung cancer) cells; concentration used in Example 3, A549 and HCT116, cell line not specified, read-out: IC20 concentration) [nM]
1 | Oc1ccc2c3c1OC1C(O)CC[C@@]4(O)[C@@H](C2)N(CC2CC2)CC[C@]314 (stereo partly shown) [6BN, N-cyclopropylmethyl-7,8-dihydro-14-hydroxynorisomorphine] | highest | significant increase | greater effect on inhibiting the proliferation |  | 
2 | Nc1ccn([C@@H]2O[C@H](CO)[C@@H](O)C2(F)F)c(=O)n1 [GEM, gemcitabine] |  |  |  | ~1000 | 
3 | O=C1CC[C@@]2(O)[C@H]3Cc4ccc(O)c5c4[C@@]2(CCN3CC2CC2)[C@H]1O5 [LDN, 17-cyclopropylmethyl-4.5α-epoxy-3,14-dihydroxymorphinan-6-one] |  | significant increase; also recorded: increased significantly | greater effect on inhibiting the proliferation |  | 
4 | O=C1[O][Pt]2([NH][C@@H]3CCCC[C@H]3[NH]2)[O]C1=O [OXP, oxaliplatin] |  |  |  |  | ~1000
